What was measured:
[1] = ACT-03 (Example 2): weights and survival; format: in vivo, Syrian Golden Hamsters; conditions: for Survival (animal status in score table): individual animal, by day 6
Source text: All animals were weighed daily and their survival recorded, in order to assess possible differences in animal weight among treatment groups as an indication for mucositis severity and/or possible toxicity resulting from the treatments.
All seventy-two (72) male Syrian Golden Hamsters were given an acute radiation dose of 40 Gy directed to their left buccal cheek pouch. This was accomplished by anesthetizing the animals and everting the left buccal pouch, while protecting the rest of the animal with a lead shield. Test materials were given either topically or by ip injection twice daily as detailed in Table 5. Mucositis was evaluated clinically starting on day 6, and continuing on alternate days until day 28. The study timeline is depicted in FIG. 7. Dose levels were determined based on the results of a previous acute toxicity study (data not published), and in the prior mucositis study of Example 1, shown in Table 5.
Male LVG Syrian Golden Hamsters (Charles River Laboratories), aged 5 to 6 weeks, with average body weight of […] at study commencement, were used. Animals were individually numbered using an ear punch and housed in small groups of approximately 8 animals per cage. Animals were acclimatized prior to study commencement. During this period of 3 days, the animals were observed daily in order to reject animals that presented in poor condition.
The significance of these differences was evaluated by calculating the mean area under the curve for the percentage weight gain for each animal and comparing the groups using a One-Way ANOVA test. There were significant differences between the vehicle control group and the group treated with M40403 at 30 mg/kg/dose once daily from day −1 to day 3 (P=0.039), he group treated with M40403 at 3 mg/kg/dose twice daily from day −1 to day 3 (P=0.040), the group treated with M40403 at 10 mg/kg/dose twice daily from day −1 to day 3 (0.018), the group treated with M40403 at 30 mg/kg/dose twice daily from day −1 to day 3 (P<0.001), the group treated with M40403 at 30 mg/kg/dose once daily from day 0 to day 3 (P=0.009) and the group treated with M40403 at 30 mg/kg/dose twice daily from day 0 to day 3 (P=0.002).

[2] = system: animal model of rheumatoid arthritis; conditions: rat, in vivo; cited from earlier work

## [Cl-].[Cl-].[Mn+2].c1cc2nc(c1)CN[C@@H]1CCCC[C@H]1NCCN[C@@H]1CCCC[C@H]1NC2 [M40403]
[1]; 30 mg/kg once daily day 0 to 3
  deaths during the study, all on the day of radiation (Day 0): Two
[1]; 30 mg/kg once daily day −1 to 3
  deaths during the study, all on the day of radiation (Day 0): Two
[1]; 30 mg/kg once daily on day 0 and day 7 (so in the source)
  deaths during the study, all on the day of radiation (Day 0): One
[1]; 30 mg/kg twice daily day −1 to 3
  deaths during the study, all on the day of radiation (Day 0): Two
[1]; first study, group 9 (30 mg/kg/dose twice daily on day 0 and on day 7), animal 70, day 0
  survival status noted in Animal Weights table: dead
[1]; group 2
  Survival (animal status in score table): dead
[1]; group 5
  Survival (animal status in score table): dead
[1]; group 6
  Survival (animal status in score table): dead
[1]; hamster, in vivo, ip
  toxicity based on observations of body weight: appear to show some toxicity
[1]; hamster, in vivo, ip, 3 mg/kg
  P, One-Way ANOVA on mean AUC of percentage weight gain v vehicle control: 0.040
  average weight gain, % of starting weight during the study (day 28): 59.3%
[1]; hamster, in vivo, ip, 10 mg/kg
  P, One-Way ANOVA on mean AUC of percentage weight gain v vehicle control: 0.018
  average weight gain, % of starting weight during the study (day 28): 56.2%
[1]; hamster, in vivo, ip, 30 mg/kg
  statistically significant reduction in growth rate v control: did not exhibit some statistically significant reductions in growth rate
[1]; second study, group 6, animal 45 on day 0, animal 46 on day 1
  Survival (animal recorded dead in weight table): dead
[2]
  efficacy in an animal model of rheumatoid arthritis: effective

Source: patent publication US9642861B2, “Methods of treating oral mucositis” (priority 2006, dated 2017)
